Measurements reported in patent US4916152A, “Pyrrolidine derivatives as antiasthmatics” (Fujisawa Pharmaceutical Co., Ltd., priority 1987, dated 1990).
Structures can show the parent of a compound that is named as a salt.

Legend:
[1] = tested on: 9,11-azo PGH2 induced aggregation of rabbit platelet; experiment: Effect on 9,11-azo PGH2 induced aggregation of rabbit platelet in vitro; type: cell-based; details: Oryctolagus cuniculus; rabbit platelet rich plasma, in vitro, 9,11-azo PGH2 (final 1.0 μM), 37° C.; read-out: IC50 (Inhibition concentration of platelet aggregation by 50%)
Description: (§1) In the following tests, the used 9, 11-azo PGH2 and 9,11-methanoepoxy PGH2 (U46619) are characterized pharmacologically as TXA2 mimetic agents and widely used for evaluating TXA2 antagonism of test compounds (for example, vide The Journal of Pharmacology and Experimental Therapeutics Vol. 234, pp 435-441).
Test 1 (Effect on 9,11-azo PGH2 induced aggregation of rabbit platelet in vitro) (a) Test method
In the in vitro experiments, the blood was collected from the carotid artery of rabbits into plastic vessels containing 0.1 volume of 3.8% aqueous sodium citrate. Platelet rich plasma (PRP) was prepared by centrifugation at 150 g for 15 minutes. Platelet aggregation was investigated using the turbidometric method with an aggregometer (NKK HEMATRACER 1). To the 225 μl of PRP, 25 μl of test compound solution was added, and then stirred at 1000 rpm for 2 minutes at 37° C. To the solution, 5 μl of 9,11-azo PGH2 (final 1.0 μM) was added as an aggregating inducer. IC50 (Inhibition concentration of platelet aggregation by 50%) were graphically determined.

[2] = tested on: 9,11-methanoepoxy PGH2 induced platelet aggregation; experiment: Effect on 9,11-methanoepoxy PGH2 (U46619) induced platelet aggregation ex vivo; type: in vivo, male Hartley strain guinea-pigs; details: Cavia porcellus, guinea-pig, oral administration 0.032 mg/kg, 1 hour before blood collection, U46619 0.5 μM
Description: as §1
Test 2. (Effect on 9,11-methanoepoxy PGH2 induced platelet aggregation ex vivo)
In the ex vivo experiments, male Hartley strain guinea-pigs weighing about 300 g were used after overnight fasting. Animals received an oral administration of test compound (0.032 mg/kg) or vehicle 1 hour before the blood collection from abdominal artery PRP was prepared as described above, and platelet aggregation was induced by adding 5 μl of 9,11-methanoepoxy PGH2 (U46619, 0.5 μM) to 250 μl of PRP.

SMILES	IC50 [1] [nM]	inhibition at 0.032 mg/kg [2] [%]
O=C(O)CCCC=C[C@@H]1C[C@@H](NS(=O)(=O)c2ccc(Cl)cc2)CN1S(=O)(=O)c1ccc(Cl)cc1 [Test compound (1), Sodium salt of (2S,4R)-2-[(E and Z)-5-carboxy-1-pentenyl]-1-(4-chlorophenylsulfonyl)-4-(4-chlorophenylsulfonylamino)pyrrolidine]	85	94.2
O=C(O)CCC/C=C\[C@@H]1C[C@@H](NS(=O)(=O)c2ccc(Cl)cc2)CN1S(=O)(=O)c1ccc(Cl)cc1 [Test compound (2), (2S,4R)-2-[(Z)-5-Carboxy-1-pentenyl]-1-(4-chlorophenylsulfonyl)-4-(4-chlorophenylsulfonylamino)pyrrolidine]	55	100
